# According to patent US20220152100A1, “METHODS FOR CONTROLLED ACTIVATION OR ELIMINATION OF THERAPEUTIC CELLS” (Bellicum Pharmaceuticals, Inc., priority 2014, published 2022):
# Experiments:
# [1] = tested on: iCasp9-positive MSCs; assay: In vivo killing of iCasp9-transduced MSCs in SCID mice (luminescence, qPCR)
# Description: All mouse experiments were performed in accordance with the Baylor College of Medicine animal husbandry guidelines. To assess the persistence of modified MSCs in vivo, a SCID mouse model was used in conjunction with an in vivo imaging system. MSCs were transduced with retroviruses coding for the enhanced green fluorescent protein-firefly luciferase (eGFP-FFLuc) gene alone or together with the iCasp9-ΔCD19 gene. Cells were sorted for eGFP positivity by fluorescence activated cell sorting using a MoFlo flow cytometer (Beckman Coulter, Fullerton, Calif.). Doubly transduced cells were also stained with PE-conjugated anti-CD19 and sorted for PE-positivity. SCID mice (8-10 weeks old) were injected subcutaneously with 5×10^5 MSCs with and without iCasp9-ΔCD19 in opposite flanks. […] For in vivo imaging of MSCs expressing eGFP-FFLuc, mice were injected intraperitoneally with D-luciferin (150 mg/kg) and analyzed using the Xenogen-IVIS Imaging System. Total luminescence (a measurement proportional to the total labeled MSCs deposited) at each time point was calculated by automatically defining regions-of-interest (ROIs) over the MSC implantation sites. These ROIs included all areas with luminescence signals at least 5% above background. Total photon counts were integrated for each ROI and an average value calculated. […]
# [2] = tested on: differentiated MSCs; assay: CID-induced apoptosis of differentiated MSC progeny (TUNEL, cell density); details: adipocytic differentiated iCasp9-positive cells, 50 nM, 24 hours; from 584
smiles,measurement,setting,value
CC[C@H](C(=O)N1CCCC[C@H]1C(=O)O[C@H](CCc1ccc(OC)c(OC)c1)c1cccc(OCC(=O)NCC(CNC(=O)COc2cccc([C@@H](CCc3ccc(OC)c(OC)c3)OC(=O)[C@@H]3CCCCN3C(=O)[C@@H](CC)c3cc(OC)c(OC)c(OC)c3)c2)CN(C)C)c1)c1cc(OC)c(OC)c(OC)c1 [AP20187],"surviving iCasp9-positive cells, of the original population",[1]; after one week,0.7%
same,killing of iCasp9-positive cells,"[1]; two injections of 50 μg 24 hours apart, qPCR",> 99%
same,cell density,[2],< 14 cells/mm2
